Results reported in PubChem BioAssay (NCI).
Values joined by “and” are separate entries in the source; they are usually repeats but may differ in a detail not shown here. Equal entries are not always repeated.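 Step 1: Grow cells in 96-well plates. Step 2: Expose to compound for 48 hours at 5 concentrations. Step 3: Interpolate endpoints linearly; if unreached, use highest concentration. GI50 = concentration required for 50% inhibition of growth. TGI marks complete inhibition of growth.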

Columns and labels:
Assay in all cases: NCI anticancer screen, dose series, 48 h
HL-60(TB) leukemia = system: HL-60(TB) leukemia
HT29 colon = system: HT29 colon
KM12 colon = system: KM12 colon
MALME-3M melanoma = system: MALME-3M melanoma
RXF 393 renal = system: RXF 393 renal
SF-295 CNS = system: SF-295 CNS
SN12C renal = system: SN12C renal
SNB-19 CNS = system: SNB-19 CNS
RPMI-8226 leukemia = system: RPMI-8226 leukemia
SK-MEL-2 melanoma = system: SK-MEL-2 melanoma

CCCCS(=O)CCC(N)C(=O)O (stereo unspecified)
TGI (HL-60(TB) leukemia): > 100 µM
TGI (HT29 colon): > 100 µM
TGI (KM12 colon): > 100 µM
TGI (MALME-3M melanoma): > 100 µM
TGI (RXF 393 renal): > 100 µM
TGI (SF-295 CNS): > 100 µM
TGI (SN12C renal): > 100 µM
TGI (SNB-19 CNS): > 100 µM

CCc1cccc(C(C)C)c1NC(=O)C(=O)CC(=O)c1c(C)n([O-])c2ccccc2[n+]1=O
TGI (HL-60(TB) leukemia): > 100 µM
TGI (MALME-3M melanoma): > 100 µM
TGI (RPMI-8226 leukemia): > 100 µM
TGI (RXF 393 renal): > 100 µM
TGI (SK-MEL-2 melanoma): > 100 µM
TGI (SN12C renal): > 100 µM
TGI (SNB-19 CNS): > 100 µM

COc1cc(/C=C2\CCC/C(=C\c3cc(OC)c(O)c(OC)c3)C2=O)cc(OC)c1O
GI50 (HT29 colon): 3.8 µM
TGI (HT29 colon): 38 µM and > 100 µM
TGI (KM12 colon): 8.33 µM
TGI (MALME-3M melanoma): 4.38 µM and 3.3 µM
TGI (RPMI-8226 leukemia): 7.54 µM
TGI (RXF 393 renal): 3.22 µM
GI50 (SF-295 CNS): 4.98 µM
GI50 (SK-MEL-2 melanoma): 1.63 µM
TGI (SK-MEL-2 melanoma): 11.8 µM and 4.19 µM
GI50 (SN12C renal): 4.37 µM
TGI (SN12C renal): 75 µM and > 100 µM
GI50 (SNB-19 CNS): 3.61 µM
TGI (SNB-19 CNS): 75 µM and > 100 µM

O=C(Nc1cccc([N+](=O)[O-])c1)C(=O)C(C(=O)c1ccccc1-c1ccccc1)C1OC(=O)c2ccccc21 (stereo unspecified)
TGI (HL-60(TB) leukemia): 56.5 µM
TGI (HT29 colon): > 100 µM
TGI (KM12 colon): 44.2 µM
TGI (MALME-3M melanoma): 34.5 µM
TGI (RPMI-8226 leukemia): 60.3 µM
TGI (RXF 393 renal): 28.5 µM
TGI (SF-295 CNS): 66.5 µM
TGI (SK-MEL-2 melanoma): 38.3 µM

Cc1c(S(C)(=O)=O)c(-c2cc(F)cc(N3CCN(c4ccc(NS(=O)(=O)c5ccc(N[C@H](CCN6CCC(C(=O)OCCCP(=O)(O)O)CC6)CSc6ccccc6)c(S(=O)(=O)C(F)(F)F)c5)cc4)CC3)c2)c(-c2ccc(Cl)cc2)n1C(C)C
GI50 (HT29 colon): > 100 µM
TGI (HT29 colon): > 100 µM
GI50 (KM12 colon): > 100 µM
TGI (KM12 colon): > 100 µM
GI50 (MALME-3M melanoma): > 100 µM
TGI (MALME-3M melanoma): > 100 µM
GI50 (RPMI-8226 leukemia): 1.29 µM
TGI (RPMI-8226 leukemia): > 100 µM
GI50 (RXF 393 renal): > 100 µM
TGI (RXF 393 renal): > 100 µM
GI50 (SF-295 CNS): > 100 µM
TGI (SF-295 CNS): > 100 µM
GI50 (SK-MEL-2 melanoma): > 100 µM
TGI (SK-MEL-2 melanoma): > 100 µM
GI50 (SN12C renal): > 100 µM
TGI (SN12C renal): > 100 µM
GI50 (SNB-19 CNS): 68.1 µM
TGI (SNB-19 CNS): > 100 µM

C=CC1[C@H]2COC(C)(C)O[C@@H]2CC(=O)C1(C)C (stereo partly specified)
TGI (HL-60(TB) leukemia): > 100 µM
TGI (HT29 colon): > 100 µM
TGI (KM12 colon): > 100 µM
TGI (MALME-3M melanoma): > 100 µM
TGI (RXF 393 renal): > 100 µM
TGI (SF-295 CNS): > 100 µM
TGI (SK-MEL-2 melanoma): > 100 µM
TGI (SN12C renal): > 100 µM
TGI (SNB-19 CNS): > 100 µM

O=C(Nc1cccs1)c1c(O)[nH]c(=S)[nH]c1=O
TGI (KM12 colon): > 100 µM
TGI (RPMI-8226 leukemia): > 100 µM
TGI (SF-295 CNS): > 100 µM
TGI (SK-MEL-2 melanoma): > 100 µM
TGI (SN12C renal): > 100 µM
TGI (SNB-19 CNS): > 100 µM

C/C(=N\O)c1cccc(Nc2cc(-n3ccnn3)c3ccccc3n2)c1
GI50 (HT29 colon): 2.17 µM
TGI (HT29 colon): 82.5 µM
GI50 (KM12 colon): 15.1 µM
TGI (KM12 colon): 33.3 µM
GI50 (RPMI-8226 leukemia): 12.5 µM
TGI (RPMI-8226 leukemia): 32 µM
GI50 (RXF 393 renal): 13.6 µM
TGI (RXF 393 renal): 39.8 µM
GI50 (SF-295 CNS): 18.5 µM
TGI (SF-295 CNS): 47.8 µM
GI50 (SK-MEL-2 melanoma): 15.3 µM
TGI (SK-MEL-2 melanoma): 29.5 µM
GI50 (SN12C renal): 15.4 µM
TGI (SN12C renal): 34 µM
GI50 (SNB-19 CNS): 45.6 µM
TGI (SNB-19 CNS): > 100 µM

CCCCC1CC(c2cccc([N+](=O)[O-])c2)=NO1 (stereo unspecified)
TGI (HL-60(TB) leukemia): > 100 µM
TGI (HT29 colon): > 100 µM
TGI (KM12 colon): > 100 µM
TGI (MALME-3M melanoma): > 100 µM
TGI (RPMI-8226 leukemia): > 100 µM
TGI (SF-295 CNS): > 100 µM
TGI (SK-MEL-2 melanoma): > 100 µM
TGI (SN12C renal): > 100 µM
TGI (SNB-19 CNS): > 100 µM

COc1ccc(C2SCC(=O)N2NC(=O)C(O)c2ccccc2)cc1OC (stereo unspecified)
GI50 (HL-60(TB) leukemia): > 100 µM
TGI (HL-60(TB) leukemia): > 100 µM
GI50 (HT29 colon): > 100 µM
TGI (HT29 colon): > 100 µM
GI50 (KM12 colon): > 100 µM
TGI (KM12 colon): > 100 µM
GI50 (RPMI-8226 leukemia): > 100 µM
TGI (RPMI-8226 leukemia): > 100 µM
GI50 (RXF 393 renal): > 100 µM
TGI (RXF 393 renal): > 100 µM
GI50 (SF-295 CNS): > 100 µM
TGI (SF-295 CNS): > 100 µM
GI50 (SK-MEL-2 melanoma): > 100 µM
TGI (SK-MEL-2 melanoma): > 100 µM
GI50 (SN12C renal): > 100 µM
TGI (SN12C renal): > 100 µM
GI50 (SNB-19 CNS): > 100 µM
TGI (SNB-19 CNS): > 100 µM

O=C(/C=C/c1ccccc1)CC1OC(=O)c2ccccc21 (stereo unspecified)
TGI (HL-60(TB) leukemia): > 100 µM
TGI (HT29 colon): > 100 µM
TGI (KM12 colon): > 100 µM
TGI (MALME-3M melanoma): > 100 µM
TGI (RPMI-8226 leukemia): 82.5 µM
TGI (RXF 393 renal): > 100 µM
TGI (SF-295 CNS): > 100 µM
TGI (SK-MEL-2 melanoma): > 100 µM
TGI (SNB-19 CNS): > 100 µM

CC1CC#CCOC(=O)CCCC1=O (stereo unspecified)
TGI (HL-60(TB) leukemia): > 100 µM
TGI (HT29 colon): > 100 µM
TGI (KM12 colon): > 100 µM
TGI (RPMI-8226 leukemia): > 100 µM
TGI (RXF 393 renal): > 100 µM
TGI (SF-295 CNS): > 100 µM
TGI (SN12C renal): > 100 µM
TGI (SNB-19 CNS): > 100 µM

CS(=O)(=O)OCCN1CCN(C(=O)c2cccc3c(Nc4ccc(S(=O)(=O)N=C(N)N)cc4)c4ccccc4nc23)CC1
TGI (HL-60(TB) leukemia): > 100 µM
TGI (HT29 colon): > 100 µM
TGI (KM12 colon): > 100 µM
TGI (MALME-3M melanoma): > 100 µM
TGI (RPMI-8226 leukemia): > 100 µM
TGI (RXF 393 renal): > 100 µM
TGI (SF-295 CNS): > 100 µM
TGI (SN12C renal): > 100 µM
TGI (SNB-19 CNS): > 100 µM

Cc1ccc(-c2cc(-c3ccco3)c(C#N)c(=O)[nH]2)cc1
TGI (HL-60(TB) leukemia): > 100 µM
TGI (HT29 colon): > 100 µM
TGI (KM12 colon): > 100 µM
TGI (MALME-3M melanoma): > 100 µM
TGI (RPMI-8226 leukemia): > 100 µM
TGI (RXF 393 renal): > 100 µM
TGI (SF-295 CNS): > 100 µM
TGI (SN12C renal): > 100 µM
TGI (SNB-19 CNS): > 100 µM

Cc1ccc(S(=O)(=O)NCCNC2=CC(=O)c3nc4ccccc4c4ccnc2c34)cc1
GI50 (HL-60(TB) leukemia): 28.1 µM
TGI (HL-60(TB) leukemia): > 100 µM
GI50 (HT29 colon): 32.5 µM
TGI (HT29 colon): 79.1 µM
GI50 (KM12 colon): 16.1 µM
TGI (KM12 colon): 34.6 µM
GI50 (MALME-3M melanoma): 20.5 µM
TGI (MALME-3M melanoma): 54.5 µM
GI50 (RPMI-8226 leukemia): 10.5 µM
TGI (RPMI-8226 leukemia): > 100 µM
GI50 (SF-295 CNS): 17.7 µM
TGI (SF-295 CNS): 39 µM
GI50 (SK-MEL-2 melanoma): 33 µM
TGI (SK-MEL-2 melanoma): > 100 µM
GI50 (SN12C renal): 17.8 µM
TGI (SN12C renal): 39.6 µM
GI50 (SNB-19 CNS): 13.8 µM
TGI (SNB-19 CNS): 33.9 µM

COc1cc(/C=C\c2ccc(C)cc2)cc(OC)c1OC
TGI (HL-60(TB) leukemia): 0.0159 µM
TGI (RPMI-8226 leukemia): 25.2 µM
GI50 (SF-295 CNS): 0.00818 µM
GI50 (SK-MEL-2 melanoma): 0.0044 µM
TGI (SK-MEL-2 melanoma): 36.5 µM
TGI (SN12C renal): > 69 µM

CC(=O)N[C@@H]1C(O)CN2C(=O)C(=O)O[C@H](C(O)CO)[C@@H]12 (stereo partly specified)
TGI (HL-60(TB) leukemia): > 100 µM
TGI (HT29 colon): > 100 µM
TGI (KM12 colon): > 100 µM
TGI (MALME-3M melanoma): > 100 µM
TGI (RPMI-8226 leukemia): > 100 µM
TGI (RXF 393 renal): > 100 µM
TGI (SF-295 CNS): > 100 µM
TGI (SK-MEL-2 melanoma): > 100 µM
TGI (SNB-19 CNS): > 100 µM

Nc1nc2c(c(=O)[nH]1)NC(CO)CN2 (stereo unspecified)
TGI (HL-60(TB) leukemia): > 100 µM
TGI (HT29 colon): > 100 µM
TGI (KM12 colon): > 100 µM
TGI (MALME-3M melanoma): > 100 µM
TGI (RPMI-8226 leukemia): > 100 µM
TGI (RXF 393 renal): > 100 µM
TGI (SF-295 CNS): > 100 µM
TGI (SN12C renal): > 100 µM
TGI (SNB-19 CNS): > 100 µM

O=C(Nc1ccc(F)cc1)c1ccc(NC2=C(Cl)C(=O)N(Cc3ccccc3)C2=O)cc1
GI50 (HL-60(TB) leukemia): 2.31 µM
TGI (HL-60(TB) leukemia): 7.35 µM
GI50 (HT29 colon): 13.1 µM
TGI (HT29 colon): > 100 µM
GI50 (KM12 colon): 15.9 µM
TGI (KM12 colon): 38 µM
GI50 (RPMI-8226 leukemia): 3.43 µM
TGI (RPMI-8226 leukemia): 12.3 µM
GI50 (RXF 393 renal): 12.2 µM
TGI (RXF 393 renal): 32.2 µM
GI50 (SF-295 CNS): 4.27 µM
TGI (SF-295 CNS): 16.6 µM
GI50 (SK-MEL-2 melanoma): 5.34 µM
TGI (SK-MEL-2 melanoma): 19.3 µM
GI50 (SN12C renal): 4.12 µM
TGI (SN12C renal): 16.4 µM
GI50 (SNB-19 CNS): 10.8 µM
TGI (SNB-19 CNS): 41.3 µM

O=C(O)COc1ccc(O)c2c1C(=O)CCCC2=O
TGI (HL-60(TB) leukemia): > 100 µM
TGI (HT29 colon): > 100 µM
TGI (KM12 colon): > 100 µM
TGI (MALME-3M melanoma): > 100 µM
TGI (RPMI-8226 leukemia): > 100 µM
TGI (SF-295 CNS): > 100 µM
TGI (SK-MEL-2 melanoma): > 100 µM
TGI (SN12C renal): > 100 µM
TGI (SNB-19 CNS): > 100 µM
